From the supplement of paper PMC10627819

Key:
S. aureus Newman = assay: Bliss interaction score (quartile over a dose matrix) (fitness difference); higher = more antagonism (negative = synergy)
In short: (§1)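 Growth was read as OD595 when cultures entered stationary phase, and each value was divided by the plate's robust no-drug mean and capped at 1. This normalised ratio is the fitness value, and fitness for each single drug came from the combination data. The Bliss score subtracts the expected fitness, taken as the product, from the observed fitness and is given as quartiles across technical, biological and donor/recipient replicates.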

S. pneumoniae D39V = assay: as above
In short: as §1

B. subtilis 168 [1] = assay: as above
In short: as §1

S. aureus DSM 20231 = assay: as above
In short: as §1

B. subtilis 168 [2] = assay: fitness (endpoint OD595 vs no drug) (fraction); higher = more growth
In short: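 Growth medium was TSB, LB Lennox or CY, and plates were kept at 37 °C. Inoculation was at OD595 0.01 in 384-well plates, at 30 µl per well or 55 µl for S. pneumoniae. OD595 was monitored every 30 min for 14 h and background-subtracted using the first reading. Fitness is the optical density on entering stationary phase divided by the robust mean of no-drug controls, with values capped at 1.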
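For Bliss interaction score (quartile over a dose matrix) in this document: first quartile when negative (synergy) and third quartile when positive (antagonism).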
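For fitness (endpoint OD595 vs no drug) in this document: OD595 on entry to stationary phase over no-drug wells; at most 1.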

CC(=O)NC[C@H]1CN(c2ccc(N3CCOCC3)c(F)c2)C(=O)O1 [Linezolid] + CO[C@@H]1[C@@H](OC(N)=O)[C@@H](O)[C@H](Oc2ccc3c(O)c(NC(=O)c4ccc(O)c(CC=C(C)C)c4)c(=O)oc3c2C)OC1(C)C [Novobiocin]
Details | Bliss interaction score
B. subtilis 168 [1] | 0.046
S. aureus DSM 20231 | 0.0424
S. aureus Newman | 0.0413
S. pneumoniae D39V | -0.123

fitness, B. subtilis 168 [2], one replicate
Details | partner 0.05 µg/mL | partner 0.1 µg/mL | partner 0.125 µg/mL | partner 0.2 µg/mL | partner 0.25 µg/mL | partner 0.5 µg/mL
first compound 0.0625 µg/mL | 0.871 | 0.925 | – | 0.885 | – | –
first compound 0.125 µg/mL | – | 0.595 | 0.846 | 0.554 | 0.727 | 0.578
first compound 0.25 µg/mL | – | 0.0625 | 0.349 | 0.0582 | 0.218 | 0.242
first compound 0.5 µg/mL | – | – | 0.069 | – | 0.0496 | 0.0575

fitness, B. subtilis 168 [2]
Details | first compound 0.125 µg/mL | first compound 0.25 µg/mL | first compound 0.5 µg/mL
partner 0.0125 µg/mL | 0.659 | 0.23 | 0.0324
partner 0.025 µg/mL | 0.574 | 0.182 | 0.0304
partner 0.05 µg/mL | 0.597 | 0.0885 | 0.0285

CO[C@@H]1[C@@H](OC(N)=O)[C@@H](O)[C@H](Oc2ccc3c(O)c(NC(=O)c4ccc(O)c(CC=C(C)C)c4)c(=O)oc3c2C)OC1(C)C [Novobiocin] + CC1=C\[C@@H](O)CC(=O)Cc2nc(co2)C(=O)N2CCC=C2C(=O)O[C@H](C(C)C)[C@H](C)/C=C/C(=O)NC\C=C\1 [Virginiamycin M1]
Details | Bliss interaction score
B. subtilis 168 [1] | 0.0734
S. aureus DSM 20231 | 0.0833
S. aureus Newman | 0.0284
S. pneumoniae D39V | 0.108

fitness, B. subtilis 168 [2]
Details | first compound 0.0125 µg/mL | first compound 0.025 µg/mL | first compound 0.05 µg/mL
partner 0.0625 µg/mL | 0.925 | 0.987 | 0.97
partner 0.125 µg/mL | 0.942 | 0.954 | 0.948
partner 0.25 µg/mL | 0.922 | 0.997 | 0.937

fitness, B. subtilis 168 [2], one replicate
Details | first compound 0.125 µg/mL | first compound 0.25 µg/mL | first compound 0.5 µg/mL
partner 0.0625 µg/mL | 0.967 | 0.867 | 0.58
partner 0.125 µg/mL | 0.973 | 0.875 | 0.571
partner 0.25 µg/mL | 0.927 | 0.884 | 0.561

CO[C@@H]1[C@@H](OC(N)=O)[C@@H](O)[C@H](Oc2ccc3c(O)c(NC(=O)c4ccc(O)c(CC=C(C)C)c4)c(=O)oc3c2C)OC1(C)C [Novobiocin] + CCN(CC)CCOC(=O)c1ccc(N)cc1 [Procaine]
Details | Bliss interaction score
B. subtilis 168 [1] | 0.0449
S. aureus DSM 20231 | 0.0431
S. aureus Newman | 0.0326
S. pneumoniae D39V | -0.109

fitness, B. subtilis 168 [2]
Details | first compound 0.0125 µg/mL | first compound 0.025 µg/mL | first compound 0.05 µg/mL
partner 85.5 µg/mL | 0.915 | 0.973 | 0.863
partner 171 µg/mL | 0.921 | 0.974 | 0.865
partner 342 µg/mL | 0.898 | 0.884 | 0.87

fitness, B. subtilis 168 [2], one replicate
Details | first compound 0.125 µg/mL | first compound 0.25 µg/mL | first compound 0.5 µg/mL
partner 85.5 µg/mL | 0.905 | 0.822 | 0.543
partner 171 µg/mL | 0.856 | 0.821 | 0.562
partner 342 µg/mL | 0.866 | 0.784 | 0.638

CO[C@@H]1[C@@H](OC(N)=O)[C@@H](O)[C@H](Oc2ccc3c(O)c(NC(=O)c4ccc(O)c(CC=C(C)C)c4)c(=O)oc3c2C)OC1(C)C [Novobiocin] + CN1C2=CC=CC=C2N=C3C1=CC=CC3=O [Pyocyanin]
Details | Bliss interaction score
B. subtilis 168 [1] | -0.137
S. aureus DSM 20231 | 0.044
S. aureus Newman | 0.0744
S. pneumoniae D39V | 0.116

fitness, B. subtilis 168 [2]
Details | first compound 0.0125 µg/mL | first compound 0.025 µg/mL | first compound 0.05 µg/mL
partner 1.25 µg/mL | 0.881 | 0.916 | 0.929
partner 2.5 µg/mL | 0.847 | 0.827 | 0.858
partner 5 µg/mL | 0.733 | 0.71 | 0.749

fitness, B. subtilis 168 [2], one replicate
Details | first compound 0.125 µg/mL | first compound 0.25 µg/mL | first compound 0.5 µg/mL
partner 1.25 µg/mL | 0.837 | 0.701 | 0.13
partner 2.5 µg/mL | 0.788 | 0.441 | 0.0992
partner 5 µg/mL | 0.454 | 0.229 | 0.164

CO[C@@H]1[C@@H](OC(N)=O)[C@@H](O)[C@H](Oc2ccc3c(O)c(NC(=O)c4ccc(O)c(CC=C(C)C)c4)c(=O)oc3c2C)OC1(C)C [Novobiocin] + CN(C)c1cc(NC(=O)CNC(C)(C)C)c(O)c2c1C[C@H]1C[C@H]3[C@H](N(C)C)C(O)=C(C(N)=O)C(=O)[C@@]3(O)C(O)=C1C2=O [Tigecycline]
Details | Bliss interaction score
B. subtilis 168 [1] | 0.034
S. aureus DSM 20231 | 0.079
S. aureus Newman | 0.03
S. pneumoniae D39V | 0.0803

fitness, B. subtilis 168 [2]
Details | first compound 0.0125 µg/mL | first compound 0.025 µg/mL | first compound 0.05 µg/mL
partner 0.039 µg/mL | 0.971 | ≥ 1 | ≥ 1
partner 0.078 µg/mL | 0.952 | 0.986 | 0.977
partner 0.156 µg/mL | 0.937 | 0.964 | 0.947

fitness, B. subtilis 168 [2], one replicate
Details | first compound 0.05 µg/mL | first compound 0.1 µg/mL | first compound 0.125 µg/mL | first compound 0.2 µg/mL | first compound 0.25 µg/mL | first compound 0.5 µg/mL
partner 0.039 µg/mL | – | – | 0.893 | – | 0.888 | 0.501
partner 0.078 µg/mL | – | – | 0.924 | – | 0.818 | 0.508
partner 0.125 µg/mL | ≥ 1 | ≥ 1 | – | ≥ 1 | – | –
partner 0.156 µg/mL | – | – | 0.866 | – | 0.77 | 0.607
partner 0.25 µg/mL | 0.943 | 0.95 | – | ≥ 1 | – | –
partner 0.5 µg/mL | 0.953 | ≥ 1 | – | 0.999 | – | –

CO[C@@H]1[C@@H](OC(N)=O)[C@@H](O)[C@H](Oc2ccc3c(O)c(NC(=O)c4ccc(O)c(CC=C(C)C)c4)c(=O)oc3c2C)OC1(C)C [Novobiocin] + CN(N=O)C(=O)N[C@@H](C=O)[C@@H](O)[C@H](O)[C@H](O)CO [Streptozotocin]
Details | Bliss interaction score
B. subtilis 168 [1] | 0.0669
S. aureus DSM 20231 | 0.0969
S. aureus Newman | 0.0508
S. pneumoniae D39V | -0.105

fitness, B. subtilis 168 [2], one replicate
Details | first compound 0.0125 µg/mL | first compound 0.025 µg/mL | first compound 0.05 µg/mL | first compound 0.125 µg/mL | first compound 0.25 µg/mL | first compound 0.5 µg/mL
partner 0.15 µg/mL | 0.914 | ≥ 1 | 0.877 | 0.869 | 0.925 | 0.516
partner 0.3 µg/mL | 0.982 | ≥ 1 | ≥ 1 | 0.858 | 0.839 | 0.516
partner 0.6 µg/mL | 0.993 | ≥ 1 | 0.945 | ≥ 1 | 0.871 | 0.504

CO[C@@H]1[C@@H](OC(N)=O)[C@@H](O)[C@H](Oc2ccc3c(O)c(NC(=O)c4ccc(O)c(CC=C(C)C)c4)c(=O)oc3c2C)OC1(C)C [Novobiocin] + CN[C@@H]1[C@H](O)[C@H](NC)[C@H]2O[C@@]3(O)C(=O)C[C@@H](C)O[C@H]3O[C@@H]2[C@H]1O [Spectinomycin]
Details | Bliss interaction score
B. subtilis 168 [1] | 0.075
S. aureus DSM 20231 | 0.0538
S. aureus Newman | 0.0698
S. pneumoniae D39V | -0.0939

fitness, B. subtilis 168 [2]
Details | first compound 0.0125 µg/mL | first compound 0.025 µg/mL | first compound 0.05 µg/mL
partner 2 µg/mL | 0.949 | 0.929 | 0.971
partner 4 µg/mL | 0.967 | 0.948 | ≥ 1
partner 8 µg/mL | 0.949 | 0.924 | 0.944

fitness, B. subtilis 168 [2], one replicate
Details | first compound 0.125 µg/mL | first compound 0.25 µg/mL | first compound 0.5 µg/mL
partner 2 µg/mL | 0.898 | 0.779 | 0.526
partner 4 µg/mL | 0.945 | 0.867 | 0.649
partner 8 µg/mL | 0.963 | 0.957 | 0.577

CO[C@@H]1[C@@H](OC(N)=O)[C@@H](O)[C@H](Oc2ccc3c(O)c(NC(=O)c4ccc(O)c(CC=C(C)C)c4)c(=O)oc3c2C)OC1(C)C [Novobiocin] + CN[C@@H]1[C@H](O[C@H]2[C@H](O[C@H]3[C@H](O)[C@@H](O)[C@H](N=C(N)N)[C@@H](O)[C@@H]3N=C(N)N)O[C@@H](C)[C@]2(O)C=O)O[C@@H](CO)[C@H](O)[C@H]1O [Streptomycin]
Details | Bliss interaction score
B. subtilis 168 [1] | 0.133
S. aureus DSM 20231 | -0.111
S. aureus Newman | -0.172
S. pneumoniae D39V | 0.0562

fitness, B. subtilis 168 [2]
Details | first compound 0.0125 µg/mL | first compound 0.025 µg/mL | first compound 0.05 µg/mL
partner 2 µg/mL | 0.967 | ≥ 1 | 0.938
partner 4 µg/mL | – | 0.725 | 0.873
partner 8 µg/mL | 0.0452 | 0.0379 | 0.0344

fitness, B. subtilis 168 [2], one replicate
Details | first compound 0.125 µg/mL | first compound 0.25 µg/mL | first compound 0.5 µg/mL
partner 2 µg/mL | 0.926 | 0.843 | 0.592
partner 4 µg/mL | 0.928 | 0.836 | 0.537
partner 8 µg/mL | 0.135 | 0.044 | 0.0121
